ChEMBL document CHEMBL1152465, “Comparative evaluation of the inhibitory activities of a series of pyrimidinedione congeners that inhibit human immunodeficiency virus types 1 and 2” (Antimicrob Agents Chemother, 2008)
pEC50, pIC50: −log10 of the molar value. Activity calls are given as the source filed them.

Legend:
[1] = test system: Human immunodeficiency virus 2; test: Antiviral activity against HIV2 ROD infected in human CEM-SS cells assessed as inhibition of virus-induced cytopathic effect by XTT assay; assay type: functional, organism-based, ISOLATE ROD; conditions: for pEC50: Human immunodeficiency virus 2, ISOLATE ROD, CEM-SS, read-out: EC50; for EC50: cem-ss
[2] = Therapeutic index, ratio of TC50 for human CEM-SS cells to EC50 for HIV1 RF infected in human CEM-SS cells; assay type: cell-based; conditions: read-out: TI
[3] = Therapeutic index, ratio of TC50 for human CEM-SS cells to EC50 for HIV2 ROD infected in human CEM-SS cells; assay type: cell-based; conditions: for selectivity ratio: CEM-SS cells, read-out: TI; for TI: cem-ss
[4] = biological target: Human immunodeficiency virus type 1 reverse transcriptase (Human immunodeficiency virus 1, UniProt Q72547); test: Inhibition of wild type HIV1 reverse transcriptase assessed as 32P-labeled GMP incorporation into nascent DNA strand
[5] = biological target: Human immunodeficiency virus type 1 reverse transcriptase (Human immunodeficiency virus 1, UniProt Q72547, K103N); test: Inhibition of HIV1 reverse transcriptase K103N mutant assessed as 32P-labeled GMP incorporation into nascent DNA strand
[6] = test system: Human immunodeficiency virus 1; test: Antiviral activity against HIV1 infected in human HeLa cells expressing CD4-LTR assessed as inhibition of viral entry-related beta galactosidase expression treated for 2 hrs followed by drug wash out measured after 48 hrs by MAGI assay; assay type: functional, organism-based; conditions: Human immunodeficiency virus 1, HeLa
[7] = Cytotoxicity against human HeLa cells expressing CD4-LTR by XTT assay; assay type: cell-based; conditions: read-out: TC50 (the source's name)
[8] = test system: Human immunodeficiency virus 1; test: Antiviral activity against HIV1 infected in human CEM-SS cells assessed as inhibition of viral replication and virus-induced cytopathic effect by dose-response curve analysis; assay type: functional; conditions: Human immunodeficiency virus 1, CEM-SS
[9] = test system: Human immunodeficiency virus 2; test: Inhibition of HIV2 reverse transcriptase
[10] = test system: Human immunodeficiency virus 2; test: Antiviral activity against HIV2 assessed as inhibition of viral single round replication at early time point; assay type: functional, organism-based
[11] = test system: Human immunodeficiency virus 2; test: Antiviral activity against HIV2 assessed as inhibition of viral replication treated at time points after viral entry into host cells; assay type: functional, organism-based
[12] = test system: Human immunodeficiency virus 2; test: Inhibition of HIV2 reverse transcriptase assessed as 32P-labeled GMP incorporation into nascent DNA strand at highest concentration
[13] = test system: HeLa; test: Inhibition of HIV1 gp120/CD4 interaction assessed as inhibition of gp120 and gp41 coexpressing human HL2/3 cell fusion to CD4 expressing human HeLa cells treated for 2 hrs measured after 48 hrs by chemiluminescence assay; assay type: cell-based; conditions: Human immunodeficiency virus 1
[14] = test system: Simian immunodeficiency virus; test: Antiviral activity against SIV MAC251 infected in human 174xCEM cells assessed as inhibition of virus-induced cytopathic effect; assay type: functional, organism-based
[15] = test system: Human immunodeficiency virus 1; test: Antiviral activity against HIV1 RF infected in human CEM-SS cells assessed as inhibition of virus-induced cytopathic effect by XTT assay; assay type: functional, organism-based; conditions: Human immunodeficiency virus 1, RF
[16] = Cytotoxicity against human CEM-SS cells by XTT assay; assay type: cell-based; conditions: read-out: TC50 (the source's name)
[17] = Therapeutic index, ratio of TC50 human HeLa cells expressing CD4-LTR to EC50 for HIV1 entry inhibition in human HeLa cells expressing CD4-LTR; assay type: cell-based; conditions: read-out: TI
[18] = test system: Human immunodeficiency virus 2; test: Antiviral activity against HIV2 infected in human CEM-SS cells assessed as inhibition of viral replication and virus-induced cytopathic effect by dose-response curve analysis; assay type: functional; conditions: Human immunodeficiency virus 2, CEM-SS

Cc1cc(C)cc(Oc2c(C(C)C)c(=O)[nH]c(=O)n2CC2CCC2)c1
pEC50 [1]: 5.89
selectivity ratio [2]: 32200
selectivity ratio [3]: 12.2
pIC50 [4]: 6.92
pIC50 [5]: 6.67
pEC50 [6]: 6.59
CC50 [7]: 16.6 µM
EC99 [8]: 1 µM
Activity [9]: inactive
Activity [10]: Active
Activity [11]: inactive
Activity [12]: inactive
inhibition [13]: inactive
Activity [14]: inactive
pEC50 [15]: 9.30
CC50 [16]: 16.1 µM

CCc1c(C(=O)c2cc(C)cc(C)c2)n(CC2CC2)c(=O)[nH]c1=O
pEC50 [1]: 6.30
selectivity ratio [2]: 125000
selectivity ratio [3]: 2650
pIC50 [4]: 6.75
pIC50 [5]: 5.75
pEC50 [6]: 8.22
CC50 [7]: 1210 µM
selectivity ratio [17]: 197000
EC99 [8]: 0.01 µM
Activity [9]: inactive
Activity [10]: Active
Activity [11]: inactive
Activity [12]: inactive
EC99 [18]: 100 µM
pEC50 [15]: 8.02
CC50 [16]: 1200 µM

CCc1c(Sc2cc(C)cc(C)c2)n(Cc2ccccc2)c(=O)[nH]c1=O
pEC50 [1]: 6.40
selectivity ratio [2]: 598000
selectivity ratio [3]: > 2490
pIC50 [4]: 4.81
pIC50 [5]: 5.39
pEC50 [6]: 6.74
CC50 [7]: 1100 µM
selectivity ratio [17]: 5980
EC99 [8]: 1 µM
Activity [9]: inactive
Activity [10]: Active
Activity [11]: inactive
Activity [12]: inactive
inhibition [13]: inactive
Activity [14]: inactive
pEC50 [15]: 8.74
CC50 [16]: 1100 µM

CCc1c(Oc2cc(C)cc(C)c2)n(CC2CCC2)c(=O)[nH]c1=O
pEC50 [1]: 5.14
selectivity ratio [2]: 54200
selectivity ratio [3]: > 172
pIC50 [4]: 6.63
pIC50 [5]: 6.54
pEC50 [6]: 6.52
CC50 [7]: 1200 µM
selectivity ratio [17]: 3960
EC99 [8]: 1 µM
Activity [9]: inactive
Activity [10]: Active
Activity [11]: inactive
Activity [12]: inactive
EC99 [18]: > 100 µM
pEC50 [15]: 7.66
CC50 [16]: 1200 µM

CCc1c(Oc2cc(C)cc(C)c2)n(Cc2ccccc2)c(=O)[nH]c1=O
pEC50 [1]: 6.52
selectivity ratio [2]: 165000
selectivity ratio [3]: 2550
pIC50 [4]: 7.02
pIC50 [5]: 6.71
pEC50 [6]: 7.10
CC50 [7]: 802 µM
selectivity ratio [17]: 10200
EC99 [8]: 0.3 µM
Activity [9]: inactive
Activity [10]: Active
Activity [11]: inactive
Activity [12]: inactive
EC99 [18]: 0.3 µM
pEC50 [15]: 8.31
CC50 [16]: 802 µM

Cc1cc(C)cc(Sc2c(C(C)C)c(=O)[nH]c(=O)n2CC2=CCCC2)c1
pEC50 [1]: 6.30
selectivity ratio [2]: 5920
selectivity ratio [3]: 57.4
pIC50 [4]: 7.10
pIC50 [5]: < 3.57
pEC50 [6]: 8.05
CC50 [7]: 29.4 µM
selectivity ratio [17]: 3270
EC99 [8]: 0.0003 µM
Activity [9]: inactive
Activity [10]: Active
Activity [11]: inactive
Activity [12]: inactive
EC99 [18]: 1 µM
pEC50 [15]: 8.30
CC50 [16]: 29.4 µM

Cc1cc(C)cc(Oc2c(C(C)C)c(=O)[nH]c(=O)n2CC2CC2)c1
pEC50 [1]: 6.30
selectivity ratio [2]: 15500
selectivity ratio [3]: 40
pIC50 [4]: 7.92
pIC50 [5]: 7.17
pEC50 [6]: 6.57
CC50 [7]: 23.4 µM
selectivity ratio [17]: 86
Activity [9]: inactive
Activity [10]: Active
Activity [11]: inactive
Activity [12]: inactive
EC99 [18]: 1 µM
pEC50 [15]: 8.74
CC50 [16]: 19.5 µM

CCc1c(Sc2cc(C)cc(C)c2)n(CC2CCC2)c(=O)[nH]c1=O
pEC50 [1]: 5.77
selectivity ratio [2]: 80800
selectivity ratio [3]: 16.3
pIC50 [4]: 7.70
pIC50 [5]: < 3.54
pEC50 [6]: 6.96
CC50 [7]: 509 µM
selectivity ratio [17]: 4610
EC99 [8]: 1 µM
Activity [9]: inactive
Activity [10]: Active
Activity [11]: inactive
Activity [12]: inactive
EC99 [18]: 40 µM
pEC50 [15]: 7.91
CC50 [16]: 27 µM

CCc1c(Oc2cc(C)cc(C)c2)n(CC2CC=CC2)c(=O)[nH]c1=O
pEC50 [1]: 4.72
selectivity ratio [2]: 170000
selectivity ratio [3]: > 3.2
pIC50 [4]: 6.42
pIC50 [5]: 5.29
pEC50 [6]: 7.05
CC50 [7]: 630 µM
selectivity ratio [17]: 6850
EC99 [8]: 0.2 µM
Activity [9]: inactive
Activity [10]: Active
Activity [11]: inactive
Activity [12]: inactive
EC99 [18]: > 100 µM
pEC50 [15]: 8.15
CC50 [16]: 1200 µM

CCc1c(Sc2ccccc2)n(CC2CC=CC2)c(=O)[nH]c1=O
EC50 [1]: Not Active
selectivity ratio [2]: 262
TI [3]: Not Active
pIC50 [4]: 6.44
pIC50 [5]: 4.77
pEC50 [6]: 7.70
CC50 [7]: 30.3 µM
selectivity ratio [17]: 1250
EC99 [8]: 1 µM
Activity [9]: inactive
Activity [10]: Active
Activity [11]: inactive
Activity [12]: inactive
pEC50 [15]: 6.82
CC50 [16]: 20.7 µM

CCc1c(Oc2cc(C)cc(C)c2)n(CCC2CCCC2)c(=O)[nH]c1=O
EC50 [1]: Not Active
selectivity ratio [2]: 57
TI [3]: Not Active
pIC50 [4]: 6.26
pIC50 [5]: 5.19
pEC50 [6]: 5.63
CC50 [7]: 55.9 µM
selectivity ratio [17]: 24
EC99 [8]: 1 µM
Activity [9]: inactive
Activity [10]: Active
Activity [11]: inactive
Activity [12]: inactive
pEC50 [15]: 5.83
CC50 [16]: 27 µM

Cc1cc(C)cc(Sc2c(C(C)C)c(=O)[nH]c(=O)n2CC2CCC2)c1
pEC50 [1]: 5.80
selectivity ratio [2]: 9290
selectivity ratio [3]: 3.9
pIC50 [4]: 7.70
pIC50 [5]: 3.74
pEC50 [6]: 6.55
CC50 [7]: 10.4 µM
selectivity ratio [17]: 37
EC99 [8]: 1 µM
Activity [9]: inactive
Activity [10]: Active
Activity [11]: inactive
Activity [12]: inactive
pEC50 [15]: 9.80
CC50 [16]: 6.1 µM

CCc1c(C(=O)c2cc(C)cc(C)c2)n(CC2CCCCC2)c(=O)[nH]c1=O
pEC50 [1]: 5.52
selectivity ratio [2]: 20300
selectivity ratio [3]: > 362
pIC50 [4]: 6.76
pIC50 [5]: < 3.57
pEC50 [6]: 7.30
CC50 [7]: 1090 µM
selectivity ratio [17]: 20200
EC99 [8]: 1 µM
Activity [9]: inactive
Activity [10]: Active
Activity [11]: inactive
Activity [12]: inactive
pEC50 [15]: 7.27
CC50 [16]: 1100 µM

Cc1cc(C)cc(Sc2c(C(C)C)c(=O)[nH]c(=O)n2CCC2=CCCC2)c1
EC50 [1]: Not Active
selectivity ratio [2]: 26
TI [3]: Not Active
pIC50 [4]: 5.63
pIC50 [5]: < 3.59
pEC50 [6]: 7.96
CC50 [7]: 21.6 µM
selectivity ratio [17]: 1990
EC99 [8]: 1 µM
Activity [9]: inactive
Activity [10]: Active
Activity [11]: inactive
Activity [12]: inactive
pEC50 [15]: 6.03
CC50 [16]: 19.3 µM

CCc1c(C(=O)c2cc(C)cc(C)c2)n(CC2CCCC2)c(=O)[nH]c1=O
pEC50 [1]: 6.10
selectivity ratio [2]: 74700
selectivity ratio [3]: 299
pIC50 [4]: 6.77
pIC50 [5]: 5.16
pEC50 [6]: 6.60
CC50 [7]: 253 µM
selectivity ratio [17]: 996
EC99 [8]: 1 µM
Activity [9]: inactive
Activity [10]: Active
Activity [11]: inactive
Activity [12]: inactive
pEC50 [15]: 8.47
CC50 [16]: 253 µM

CCc1c(Sc2cc(C)cc(C)c2)n(CCC2CC=CC2)c(=O)[nH]c1=O
pEC50 [1]: 5.77
selectivity ratio [2]: 1030
selectivity ratio [3]: 11.4
pIC50 [4]: 6.75
pIC50 [5]: 3.85
pEC50 [6]: 7.05
CC50 [7]: 135 µM
selectivity ratio [17]: 1460
EC99 [8]: 1 µM
Activity [9]: inactive
Activity [10]: Active
Activity [11]: inactive
Activity [12]: inactive
pEC50 [15]: 7.62
CC50 [16]: 19.5 µM
